Results reported in PubChem BioAssay AID330 (DTP/NCI, 2004).
Several values for one entry are separate records, joined by “and”; a condition that tells them apart may be missing. Identical values can stand only once. Toxic doses and inconclusive results are not listed. Rule for the calls: active = survival T/C of 150% or more; inactive = T/C below 125% in these data.

System: P388 leukemia ip, CD2F1 mice, survival T/C
Experiment: NCI In Vivo Anticancer Drug Screen. Data for tumor model P388 Leukemia (intraperitoneal) in CD2F1 (CDF1) mice
Settings: endpoint: median survival time, higher = longer survival
Procedure, shortened: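 Mice carrying the transplanted tumor received test compound or vehicle. Survival was recorded in each group, and the value is the treated-group measurement divided by that of the vehicle-treated control group.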

[1] = dose: 100.0 mg/kg/injection, schedule: Q01DX001 (ip), vehicle: saline
[2] = dose: 200.0 mg/kg/injection, schedule: Q01DX001 (ip), vehicle: saline
[3] = dose: 400.0 mg/kg/injection, schedule: Q01DX001 (ip), vehicle: saline
[4] = dose: 50.0 mg/kg/injection, schedule: Q01DX009 (ip), vehicle: saline
[5] = dose: 50.0 mg/kg/injection, schedule: Q01DX009 (ip), vehicle: Klucel (hydroxypropylcellulose) (HPC)
[6] = dose: 100.0 mg/kg/injection, schedule: Q01DX009 (ip), vehicle: Klucel (hydroxypropylcellulose) (HPC)
[7] = dose: 200.0 mg/kg/injection, schedule: Q01DX009 (ip), vehicle: Klucel (hydroxypropylcellulose) (HPC)
[8] = dose: 60.0 mg/kg/injection, schedule: Q01DX005 (ip), vehicle: saline with Tween-80
[9] = dose: 120.0 mg/kg/injection, schedule: Q01DX005 (ip), vehicle: saline with Tween-80

Measured: T/C

COC(=O)c1ncn(CCCO)c1O
inactive: [1] 92 % of control | [2] 100 % of control | [3] 104 % of control

COc1ccc(/C=N/n2cnc3c(sc4ccccc43)c2=O)cc1
inactive: dose: 12.5 mg/kg/injection, schedule: Q01DX005 (ip), vehicle: Klucel (hydroxypropylcellulose) (HPC) 99 % of control | dose: 25.0 mg/kg/injection, schedule: Q01DX005 (ip), vehicle: Klucel (hydroxypropylcellulose) (HPC) 100 % of control | dose: 50.0 mg/kg/injection, schedule: Q01DX005 (ip), vehicle: Klucel (hydroxypropylcellulose) (HPC) 87 % of control and 92 % of control | dose: 200.0 mg/kg/injection, schedule: Q01DX005 (ip), vehicle: Klucel (hydroxypropylcellulose) (HPC) 92 % of control

CC(=O)OCC1OC(n2cnc3c2N=CN2C(CCl)=CC(=O)NC32)C(OC(C)=O)C1OC(C)=O (stereo not drawn)
inactive: dose: 100.0 mg/kg/injection, schedule: Q01DX001 (ip), vehicle: saline with Tween-80 103 % of control | dose: 200.0 mg/kg/injection, schedule: Q01DX001 (ip), vehicle: saline with Tween-80 103 % of control | dose: 400.0 mg/kg/injection, schedule: Q01DX001 (ip), vehicle: saline with Tween-80 110 % of control

CC[CH2][Sn](=[O])[c]1ccccc1
inactive: dose: 12.5 mg/kg/injection, schedule: Q01DX009 (ip), vehicle: saline 99 % of control | dose: 25.0 mg/kg/injection, schedule: Q01DX009 (ip), vehicle: saline 105 % of control | [4] 98 % of control and 123 % of control | dose: 200.0 mg/kg/injection, schedule: Q01DX009 (ip), vehicle: saline 96 % of control

O=c1c2cc(O)ccc2oc2cc(O)cc(O)c12
inactive: dose: 10.0 mg/kg/injection, schedule: Q01DX009 (ip), vehicle: saline 104 % of control | dose: 20.0 mg/kg/injection, schedule: Q01DX009 (ip), vehicle: saline 111 % of control | dose: 40.0 mg/kg/injection, schedule: Q01DX009 (ip), vehicle: saline 111 % of control | dose: 80.0 mg/kg/injection, schedule: Q01DX009 (ip), vehicle: saline 105 % of control

Nc1cccc2c1C(=O)c1cccc(Cl)c1C2=O
inactive: dose: 100.0 mg/kg/injection, schedule: Q04DX003 (ip), vehicle: saline with Tween-80 104 % of control | dose: 200.0 mg/kg/injection, schedule: Q04DX003 (ip), vehicle: saline with Tween-80 104 % of control | dose: 400.0 mg/kg/injection, schedule: Q04DX003 (ip), vehicle: saline with Tween-80 100 % of control

CNC(=O)OCc1nc(-c2ccccc2)n(C)c1COC(=O)NC
inactive: dose: 12.5 mg/kg/injection, schedule: Q01DX005 (ip), vehicle: distilled water + Tween-80 98 % of control | dose: 25.0 mg/kg/injection, schedule: Q01DX005 (ip), vehicle: distilled water + Tween-80 107 % of control | dose: 50.0 mg/kg/injection, schedule: Q01DX005 (ip), vehicle: distilled water + Tween-80 112 % of control | dose: 100.0 mg/kg/injection, schedule: Q01DX005 (ip), vehicle: distilled water + Tween-80 116 % of control | dose: 200.0 mg/kg/injection, schedule: Q01DX005 (ip), vehicle: distilled water + Tween-80 119 % of control

COC(c1cc(C(O)(C(F)(F)F)C(F)(F)F)cc(C(OC)(C(F)(F)F)C(F)(F)F)c1)(C(F)(F)F)C(F)(F)F
inactive: dose: 100.0 mg/kg/injection, schedule: Q04DX003 (ip), vehicle: Klucel (hydroxypropylcellulose) (HPC) 100 % of control | dose: 200.0 mg/kg/injection, schedule: Q04DX003 (ip), vehicle: Klucel (hydroxypropylcellulose) (HPC) 100 % of control | dose: 400.0 mg/kg/injection, schedule: Q04DX003 (ip), vehicle: Klucel (hydroxypropylcellulose) (HPC) 92 % of control

COc1cc2c(c(OC)c1OC)-c1ccc(OC)c(=O)cc1C(NC(=O)COc1ccccc1)CC2 (stereo not drawn)
inactive: dose: 0.16 mg/kg/injection, schedule: Q01DX009 (ip), vehicle: Klucel (hydroxypropylcellulose) (HPC) 120 % of control
104 % of control and 207 % of control: dose: 2.5 mg/kg/injection, schedule: Q01DX009 (ip), vehicle: Klucel (hydroxypropylcellulose) (HPC)
active: dose: 1.25 mg/kg/injection, schedule: Q01DX009 (ip), vehicle: Klucel (hydroxypropylcellulose) (HPC) 164 % of control and 171 % of control

COc1cc(OC)c(/C=C/c2c3ccccc3cc[n+]2C)c(OC)c1
active: dose: 3.13 mg/kg/injection, schedule: Q01DX009 (ip), vehicle: saline with Tween-80 152 % of control
inactive: dose: 0.39 mg/kg/injection, schedule: Q01DX009 (ip), vehicle: saline with Tween-80 108 % of control | dose: 0.78 mg/kg/injection, schedule: Q01DX009 (ip), vehicle: saline with Tween-80 121 % of control

COc1cc2c(cc1OC)/C(=N/N=C1\CCCc3cc(OC)c(OC)cc31)CCC2
inactive: dose: 6.25 mg/kg/injection, schedule: Q01DX009 (ip), vehicle: other 93 % of control | dose: 6.25 mg/kg/injection, schedule: Q01DX009 (ip), vehicle: water 98 % of control | dose: 12.5 mg/kg/injection, schedule: Q01DX009 (ip), vehicle: other 92 % of control | dose: 12.5 mg/kg/injection, schedule: Q01DX009 (ip), vehicle: water 86 % of control | dose: 25.0 mg/kg/injection, schedule: Q01DX009 (ip), vehicle: other 92 % of control | dose: 25.0 mg/kg/injection, schedule: Q01DX009 (ip), vehicle: water 86 % of control | dose: 50.0 mg/kg/injection, schedule: Q01DX009 (ip), vehicle: other 90 % of control | dose: 100.0 mg/kg/injection, schedule: Q01DX009 (ip), vehicle: other 88 % of control | dose: 100.0 mg/kg/injection, schedule: Q01DX009 (ip), vehicle: water 91 % of control

CC1C2Cc3ccc(O)cc3C1(C)CCN2Cc1ccoc1 (stereo not drawn)
inactive: [4] 96 % of control | dose: 100.0 mg/kg/injection, schedule: Q01DX009 (ip), vehicle: saline 99 % of control

CCn1c2nc(=O)n(C)c(=O)c-2[n+]([O-])c2cc(Br)c(C)cc21
inactive: dose: 100.0 mg/kg/injection, schedule: Q04DX002 (ip), vehicle: saline with Tween-80 96 % of control | dose: 200.0 mg/kg/injection, schedule: Q04DX002 (ip), vehicle: saline with Tween-80 94 % of control | dose: 400.0 mg/kg/injection, schedule: Q04DX002 (ip), vehicle: saline with Tween-80 96 % of control

CNC(=O)Nc1ccccc1C(=O)NN
inactive: dose: 25.0 mg/kg/injection, schedule: Q01DX009 (ip), vehicle: Klucel (hydroxypropylcellulose) (HPC) 100 % of control | [5] 109 % of control | [6] 105 % of control | [7] 96 % of control

NC(=O)C(=Nc1ccccc1)Nc1ccccc1
inactive: [1] 115 % of control | [2] 107 % of control | [3] 104 % of control

CC(=O)Nc1ncnc2c(C3OC(COC(C)=O)C(OC(C)=O)C3OC(C)=O)[nH]nc12 (stereo not drawn)
inactive: [8] 105 % of control | [9] 95 % of control

C=C(C)C(=O)O[C@H]1C[C@@]2(C)OC(=CC2=O)/C(CO)=C\[C@H]2OC(=O)C(=C)[C@H]12
inactive: dose: 1.56 mg/kg/injection, schedule: Q01DX009 (ip), vehicle: Klucel (hydroxypropylcellulose) (HPC) 108 % of control | dose: 3.13 mg/kg/injection, schedule: Q01DX009 (ip), vehicle: Klucel (hydroxypropylcellulose) (HPC) 106 % of control | dose: 6.25 mg/kg/injection, schedule: Q01DX009 (ip), vehicle: Klucel (hydroxypropylcellulose) (HPC) 117 % of control

CCCS(=O)(=O)/C=C/C(=O)c1ccc2ccccc2c1
inactive: dose: 100.0 mg/kg/injection, schedule: Q04DX003 (ip), vehicle: saline 105 % of control | dose: 200.0 mg/kg/injection, schedule: Q04DX003 (ip), vehicle: saline 108 % of control | dose: 400.0 mg/kg/injection, schedule: Q04DX003 (ip), vehicle: saline 106 % of control

Cc1nn(C(=S)S)c(C)c1N=Nc1ccccc1[N+](=O)[O-]
inactive: dose: 100.0 mg/kg/injection, schedule: Q04DX002 (ip), vehicle: Klucel (hydroxypropylcellulose) (HPC) 103 % of control | dose: 200.0 mg/kg/injection, schedule: Q04DX002 (ip), vehicle: Klucel (hydroxypropylcellulose) (HPC) 94 % of control | dose: 400.0 mg/kg/injection, schedule: Q04DX002 (ip), vehicle: Klucel (hydroxypropylcellulose) (HPC) 107 % of control

Cc1ccc(NC(=S)NCC2CCCO2)cc1C (stereo not drawn)
inactive: [5] 102 % of control and 98 % of control | [6] 91 % of control | [7] 92 % of control and 93 % of control and 97 % of control

O=C1CSC(c2cccc(O)c2)N1c1nncs1 (stereo not drawn)
inactive: [8] 114 % of control | [9] 107 % of control | dose: 240.0 mg/kg/injection, schedule: Q01DX005 (ip), vehicle: saline with Tween-80 95 % of control
